Data as given in ChEMBL document CHEMBL1255179, “Fatty acid synthase inhibitors of phenolic constituents isolated from Garcinia mangostana” (Bioorg Med Chem Lett, 2010).
pIC50: −log10 of the molar value.

How the values were obtained:
[1] = target: Fatty acid synthase (Gallus gallus) (UniProt P12276); experiment: Inhibition of FAS
[2] = target: Fatty acid synthase (Gallus gallus) (UniProt P12276); experiment: Inhibition of FAS at 1000 uM

Fatty acid synthase (Gallus gallus), sequence (P12276 whole entry, looked up): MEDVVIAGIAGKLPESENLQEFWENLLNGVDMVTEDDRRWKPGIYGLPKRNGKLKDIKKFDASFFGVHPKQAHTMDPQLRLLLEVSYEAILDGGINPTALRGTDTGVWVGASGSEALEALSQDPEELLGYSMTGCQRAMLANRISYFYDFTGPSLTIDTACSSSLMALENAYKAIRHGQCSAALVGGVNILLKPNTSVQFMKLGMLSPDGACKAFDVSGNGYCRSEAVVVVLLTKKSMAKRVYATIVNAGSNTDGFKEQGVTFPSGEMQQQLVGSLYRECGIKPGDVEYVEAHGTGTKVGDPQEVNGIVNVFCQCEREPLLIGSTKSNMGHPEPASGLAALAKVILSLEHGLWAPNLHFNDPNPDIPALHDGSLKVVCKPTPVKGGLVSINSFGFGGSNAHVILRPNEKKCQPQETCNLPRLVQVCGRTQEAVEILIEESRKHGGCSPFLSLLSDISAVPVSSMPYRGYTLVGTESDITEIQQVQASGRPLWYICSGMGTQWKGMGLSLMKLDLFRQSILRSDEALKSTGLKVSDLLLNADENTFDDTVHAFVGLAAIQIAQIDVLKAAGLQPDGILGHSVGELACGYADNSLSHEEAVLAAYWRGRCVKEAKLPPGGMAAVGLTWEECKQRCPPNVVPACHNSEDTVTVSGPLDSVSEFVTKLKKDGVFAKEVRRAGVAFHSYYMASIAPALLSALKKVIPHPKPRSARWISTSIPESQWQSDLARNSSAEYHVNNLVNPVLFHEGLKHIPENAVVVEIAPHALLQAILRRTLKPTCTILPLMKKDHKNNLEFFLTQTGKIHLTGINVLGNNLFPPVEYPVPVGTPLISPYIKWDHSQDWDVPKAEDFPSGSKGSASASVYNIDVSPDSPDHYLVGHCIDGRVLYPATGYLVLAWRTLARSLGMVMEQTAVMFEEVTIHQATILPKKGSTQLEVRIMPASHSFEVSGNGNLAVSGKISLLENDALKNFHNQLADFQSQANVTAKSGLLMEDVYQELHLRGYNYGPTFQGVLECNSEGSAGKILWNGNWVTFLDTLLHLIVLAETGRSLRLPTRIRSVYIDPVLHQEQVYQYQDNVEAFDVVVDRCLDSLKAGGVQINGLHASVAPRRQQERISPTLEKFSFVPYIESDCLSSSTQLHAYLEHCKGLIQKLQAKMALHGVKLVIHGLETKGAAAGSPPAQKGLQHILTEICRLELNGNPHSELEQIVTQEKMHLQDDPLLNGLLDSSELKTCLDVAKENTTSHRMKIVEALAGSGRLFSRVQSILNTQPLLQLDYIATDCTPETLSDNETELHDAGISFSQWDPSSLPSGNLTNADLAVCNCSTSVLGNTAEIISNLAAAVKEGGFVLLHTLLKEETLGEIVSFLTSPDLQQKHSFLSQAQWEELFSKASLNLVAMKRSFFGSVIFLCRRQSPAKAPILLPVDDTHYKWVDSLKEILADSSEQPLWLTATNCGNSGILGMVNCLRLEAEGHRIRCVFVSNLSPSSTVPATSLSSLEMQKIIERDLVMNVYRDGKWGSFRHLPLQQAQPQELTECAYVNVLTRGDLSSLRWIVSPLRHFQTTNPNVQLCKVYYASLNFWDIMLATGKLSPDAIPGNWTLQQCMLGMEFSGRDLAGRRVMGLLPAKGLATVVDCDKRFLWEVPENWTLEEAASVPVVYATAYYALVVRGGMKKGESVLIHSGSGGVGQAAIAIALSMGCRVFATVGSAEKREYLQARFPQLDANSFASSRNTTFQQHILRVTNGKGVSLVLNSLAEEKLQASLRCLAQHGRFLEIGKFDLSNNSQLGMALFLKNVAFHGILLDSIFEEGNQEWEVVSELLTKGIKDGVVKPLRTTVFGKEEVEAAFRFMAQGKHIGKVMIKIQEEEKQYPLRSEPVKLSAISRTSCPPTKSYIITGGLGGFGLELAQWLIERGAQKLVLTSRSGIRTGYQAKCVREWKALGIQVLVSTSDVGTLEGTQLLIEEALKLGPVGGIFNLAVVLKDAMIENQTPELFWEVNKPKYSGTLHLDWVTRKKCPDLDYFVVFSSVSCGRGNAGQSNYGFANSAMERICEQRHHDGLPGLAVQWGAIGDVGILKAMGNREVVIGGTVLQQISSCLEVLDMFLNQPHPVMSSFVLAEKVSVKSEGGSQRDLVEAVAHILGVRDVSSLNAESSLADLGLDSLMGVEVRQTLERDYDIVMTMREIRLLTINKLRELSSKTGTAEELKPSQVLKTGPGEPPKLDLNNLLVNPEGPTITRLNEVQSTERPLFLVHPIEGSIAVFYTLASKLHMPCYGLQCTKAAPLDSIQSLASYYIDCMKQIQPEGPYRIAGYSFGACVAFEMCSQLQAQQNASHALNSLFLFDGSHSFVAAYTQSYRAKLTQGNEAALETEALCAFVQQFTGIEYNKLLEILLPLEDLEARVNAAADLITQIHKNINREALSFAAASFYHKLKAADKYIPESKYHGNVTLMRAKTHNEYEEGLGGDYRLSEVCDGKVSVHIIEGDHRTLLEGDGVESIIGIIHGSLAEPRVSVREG

Row | pIC50 [1] | pIC50 [2] | SMILES
1 | 4.83 | – | O=C(c1cccc(O)c1)c1cc(O)c(O)c(O)c1
2 | 5.07 | – | O=C(c1cc(O)cc(O)c1)c1c(O)cc(O)cc1O
3 | 4.75 | – | O=c1c2cc(O)c(O)cc2oc2cc(O)cc(O)c12
4 | 4.39 | – | O=c1c2cc(O)ccc2oc2cc(O)cc(O)c12
5 | – | < 3.00 | Oc1cc(O)c2c(c1)O[C@@H](c1ccc(O)c(O)c1)[C@@H](O)C2 [(+)-EPICATECHIN]
6 | 5.26 | – | COc1c(O)cc2oc3cc(O)c(CC=C(C)C)c(O)c3c(=O)c2c1CC=C(C)C [MANGOSTIN]
7 | 4.31 | – | C[C@@H]1O[C@@H](O[C@@H]2C(=O)c3c(O)cc(O)cc3O[C@H]2c2cc(O)cc(O)c2)[C@H](O)[C@H](O)[C@H]1O [NEOSMITILBIN]

Further lines, the molecule ahead of its results:

Row | SMILES | pIC50 [1] | pIC50 [2]
8 | CC(C)=CCc1c(O)cc2oc3cc(O)c(O)c(CC=C(C)C)c3c(=O)c2c1O | 5.91 | –
9 | COc1cc2oc3cc(O)c(OC)c(CC=C(C)C)c3c(=O)c2c(O)c1CC=C(C)C | 4.61 | –
10 | COc1cc(CCCO)cc2cc(-c3ccc4c(c3)OCO4)oc12 [EGONOL] | 4.04 | –
11 | O=C(O[C@@H]1Cc2c(O)cc(O)cc2O[C@@H]1c1cc(O)c(O)c(O)c1)c1cc(O)c(O)c(O)c1 [EPIGALOCATECHIN GALLATE] | 4.28 | –
12 | CC(C)=CCc1c(O)cc2oc3c(CC=C(C)C)c(O)c(O)c(CC=C(C)C)c3c(=O)c2c1O [GARCINONE E] | 5.48 | –
13 | COc1c(O)cc2oc3cc4c(c(O)c3c(=O)c2c1CC=C(C)C)C=CC(C)(C)O4 [MANGOSTANIN] | 4.39 | –
